According to PubChem BioAssay (NCI):
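96-well plates; 48 h exposure; 5 concentrations. Endpoints by linear interpolation between flanking doses. Not reached: highest tested concentration assigned. The concentration for 50% growth inhibition is given as GI50. TGI marks complete inhibition of growth.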 Where a SMILES comes first, the peptide text is derived from it.

Columns and labels:
Assay in all cases: NCI-60 cell line screen, 48 h
[1] = tested on: SF-539 CNS
[2] = tested on: HT29 colon
[3] = tested on: OVCAR-3 ovarian
[4] = tested on: DU-145 prostate
[5] = tested on: SR leukemia
[6] = tested on: HCC-2998 colon
[7] = tested on: HCT-15 colon
[8] = tested on: HCT-116 colon
[9] = tested on: OVCAR-8 ovarian
[10] = tested on: LOX IMVI melanoma

## NC(CCOCCP(=O)(O)CCC1C=CC=CC1)C(=O)O (configuration not stated)
[1]
  TGI: > 100 µM
[2]
  TGI: > 100 µM
[3]
  TGI: > 100 µM
[4]
  TGI: > 100 µM
[5]
  TGI: > 100 µM
[6]
  TGI: > 100 µM
[7]
  TGI: > 100 µM
[8]
  TGI: > 100 µM
[9]
  TGI: > 100 µM
[10]
  TGI: > 100 µM

## CC[C@@]1(O)C(=O)OCc2c1cc1n(c2=O)Cc2cc3ccccc3nc2-1
[1]
  TGI: 0.0591 µM
[2]
  TGI: 0.839 µM
[3]
  GI50: 0.214 µM
  TGI: 0.726 µM
[4]
  TGI: 0.0605 µM
[5]
  TGI: 0.0769 µM
[6]
  TGI: 1.21 µM
[7]
  TGI: 7.99 µM
[8]
  TGI: 1.91 µM
[9]
  GI50: 0.0246 µM
  TGI: 0.555 µM
[10]
  TGI: 0.64 µM

## C[Si](C)(C)c1ccc(-c2c3ccc(-c4cc(Br)cc(Br)c4)nc3nc3nc(-c4cc(Br)cc(Br)c4)ccc23)cc1
[3]
  TGI: > 100 µM
[4]
  TGI: > 100 µM
[6]
  TGI: > 100 µM
[7]
  TGI: > 100 µM
[8]
  TGI: > 100 µM

## O=C1c2cccnc2C(=O)c2c1c(C(=O)OCCN1CCCCC1)c1ccccn21
[1]
  GI50: 0.0174 µM
  TGI: 0.155 µM
[2]
  GI50: 0.12 µM
  TGI: 1.71 µM
[3]
  GI50: 0.172 µM
  TGI: 2.81 µM
[4]
  GI50: 0.0189 µM
  TGI: 0.714 µM
[5]
  GI50: 0.00698 µM
  TGI: 0.0828 µM
[6]
  GI50: 0.0788 µM
  TGI: 1.57 µM
[7]
  GI50: 0.0416 µM
  TGI: 0.984 µM
[8]
  GI50: 0.041 µM
  TGI: 1.95 µM
[9]
  GI50: 0.0344 µM
  TGI: 1.02 µM
[10]
  GI50: 0.0172 µM
  TGI: 0.095 µM

## Nc1ccc(O)c2c1C(=O)c1c(N)ccc(O)c1C2=O
[1]
  TGI: > 100 µM
[3]
  TGI: > 100 µM
[6]
  TGI: > 100 µM
[7]
  TGI: > 100 µM
[8]
  TGI: > 100 µM
[9]
  TGI: > 100 µM
[10]
  TGI: > 100 µM

## NC(=O)C1CCCN1C(=O)C(N)Cc1ccccc1 (stereo not drawn) (H-Phe-Pro-NH2; configuration not given here)
[2]
  TGI: > 100 µM
[3]
  TGI: > 100 µM
[4]
  TGI: > 100 µM
[5]
  TGI: > 100 µM
[6]
  TGI: > 100 µM
[7]
  TGI: > 100 µM
[8]
  TGI: > 100 µM
[9]
  TGI: > 100 µM
[10]
  TGI: > 100 µM

## CN(CC(=O)O)Cc1c(O)c(Cl)cc(Cl)c1Cl
[1]
  TGI: > 100 µM
[2]
  TGI: > 100 µM
[3]
  TGI: 38.8 µM
[4]
  TGI: > 100 µM
[5]
  TGI: 90.9 µM
[7]
  TGI: > 100 µM
[8]
  TGI: > 100 µM
[9]
  TGI: > 100 µM
[10]
  TGI: > 100 µM

## CC1C(=O)CC(c2cccs2)N(N=O)C1c1cccs1 (configuration not stated)
[1]
  TGI: > 100 µM
[2]
  TGI: > 59.1 µM
[3]
  TGI: > 79.5 µM
[6]
  TGI: > 100 µM
[7]
  TGI: > 100 µM
[8]
  TGI: > 100 µM
[9]
  TGI: > 100 µM
[10]
  TGI: > 100 µM

## CCc1n[nH]c(=O)n1/N=C(\C)c1ccc([N+](=O)[O-])cc1
[2]
  TGI: > 100 µM
[3]
  TGI: > 100 µM
[4]
  TGI: > 100 µM
[7]
  TGI: > 100 µM
[8]
  TGI: > 100 µM
[9]
  TGI: > 100 µM
[10]
  TGI: > 100 µM

## COc1ccc(NC(C)=O)cc1N1C(=O)/C(=C\c2ccccc2)SC1c1cc(OC)c(OC)c(OC)c1 (configuration not stated)
[1]
  TGI: 45.5 µM
[2]
  TGI: > 100 µM
[3]
  TGI: > 100 µM
[4]
  TGI: 80.6 µM
[5]
  TGI: > 100 µM
[6]
  TGI: 47.4 µM
[7]
  TGI: 58.8 µM
[8]
  TGI: 29.5 µM
[9]
  TGI: 71.4 µM
[10]
  TGI: 34.5 µM

## Clc1cc(Cl)c2cc3cccc[n+]3cc2c1Cl
[1]
  TGI: 32.4 µM
[2]
  TGI: 30.7 µM
[3]
  TGI: 26.8 µM
[4]
  TGI: 34 µM
[5]
  TGI: 32.9 µM
[6]
  TGI: 36.6 µM
[7]
  TGI: 36.1 µM
[8]
  TGI: > 100 µM
[9]
  TGI: 31 µM
[10]
  TGI: 34.7 µM

## OC[C@H]1NC[C@@H](O)[C@@H](O)[C@H]1O
[2]
  TGI: > 100 µM
[3]
  TGI: > 100 µM
[5]
  TGI: > 100 µM
[6]
  TGI: > 100 µM
[7]
  TGI: > 100 µM
[8]
  TGI: > 100 µM
[9]
  TGI: > 100 µM
[10]
  TGI: > 100 µM

## COc1ccc(-c2nc3c(nc2-c2ccc(OC)cc2)C(N)=NS(=O)(=O)N3)cc1
[1]
  TGI: > 100 µM
[2]
  TGI: > 100 µM
[3]
  TGI: > 100 µM
[6]
  TGI: > 100 µM
[7]
  TGI: > 100 µM
[9]
  TGI: > 100 µM
[10]
  TGI: > 100 µM

## CSc1nc(CO)c(CO)n1C
[1]
  TGI: > 100 µM
[2]
  TGI: > 100 µM
[3]
  TGI: > 100 µM
[6]
  TGI: > 100 µM
[7]
  TGI: > 100 µM
[8]
  TGI: > 100 µM
[9]
  TGI: > 100 µM
[10]
  TGI: > 100 µM

## CCOC(=O)Cn1c2ccc(Br)cc2c2nc3ccccc3nc21
[2]
  TGI: > 100 µM
[3]
  TGI: > 100 µM
[4]
  TGI: > 100 µM
[5]
  TGI: > 100 µM
[8]
  TGI: > 100 µM
[9]
  TGI: > 100 µM
[10]
  TGI: > 100 µM

## O=C(NC(Cc1ccc(Br)cc1)C(=O)O)c1ccc(I)cc1 (configuration not stated)
[1]
  TGI: > 100 µM
[2]
  TGI: > 100 µM
[3]
  TGI: > 100 µM
[6]
  TGI: > 100 µM
[7]
  TGI: > 100 µM
[8]
  TGI: > 100 µM
[9]
  TGI: > 100 µM
[10]
  TGI: > 100 µM

## CCN1c2cc(Br)cc3[nH]c(=O)n(c23)CCC1C (configuration not stated)
[1]
  TGI: > 100 µM
[2]
  TGI: 31.6 µM
[3]
  TGI: 28.9 µM
[4]
  TGI: 36 µM
[5]
  TGI: 65.9 µM
[6]
  TGI: 31.6 µM
[7]
  TGI: 35.5 µM
[8]
  TGI: 28.3 µM
[9]
  TGI: 30.9 µM
[10]
  TGI: 24.7 µM

## CC(=O)Nc1cccc(N2C(=O)/C(=C\c3cccc(Oc4ccccc4)c3)S(=O)(=O)C2c2ccccc2)c1 (configuration not stated)
[1]
  TGI: > 100 µM
[2]
  TGI: > 100 µM
[3]
  TGI: > 100 µM
[4]
  TGI: > 100 µM
[5]
  TGI: 58.3 µM
[6]
  TGI: > 100 µM
[7]
  TGI: > 100 µM
[8]
  TGI: > 100 µM
[9]
  TGI: > 100 µM
[10]
  TGI: > 100 µM

## CN(Cc1cn(O)c2nc(=N)nc(N)c-2n1)c1ccc(C(=O)NC23CC4CC(CC(C4)C2)C3)cc1
[3]
  TGI: > 100 µM
[4]
  TGI: > 100 µM
[5]
  TGI: > 100 µM
[7]
  TGI: > 100 µM
[8]
  TGI: > 100 µM
[9]
  TGI: > 100 µM
[10]
  TGI: > 100 µM
